According to ChEMBL document CHEMBL5291721, “A preclinical secondary pharmacology resource illuminates target-adverse drug reaction associations of marketed drugs” (Nat Commun, 2023):
Where a SMILES comes first, the peptide text is derived from it. [ ]: non-standard residue; d: D form. pGlu = O=C1CC[C@@H](C(=O)O)N1; Thz = O=C(O)[C@@H]1CSCN1

What was measured:
[1] = target: Delta-type opioid receptor (Homo sapiens, UniProt P41143)
Adenosine receptor A1 = target: T1, Adenosine receptor A1 (Homo sapiens, UniProt P30542)
T1 sequence (P30542 whole entry): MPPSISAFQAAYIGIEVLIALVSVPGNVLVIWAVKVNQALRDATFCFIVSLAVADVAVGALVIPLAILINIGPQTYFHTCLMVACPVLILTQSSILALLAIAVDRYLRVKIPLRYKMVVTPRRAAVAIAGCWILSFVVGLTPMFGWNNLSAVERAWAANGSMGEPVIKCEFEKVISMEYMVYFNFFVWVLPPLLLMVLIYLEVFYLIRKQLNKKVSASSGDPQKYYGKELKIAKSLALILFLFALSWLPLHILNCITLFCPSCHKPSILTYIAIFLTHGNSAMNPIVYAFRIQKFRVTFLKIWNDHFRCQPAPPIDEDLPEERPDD

Progesterone receptor = target: T2, Progesterone receptor (Homo sapiens, UniProt P06401); format: functional
T2 sequence (P06401 whole entry): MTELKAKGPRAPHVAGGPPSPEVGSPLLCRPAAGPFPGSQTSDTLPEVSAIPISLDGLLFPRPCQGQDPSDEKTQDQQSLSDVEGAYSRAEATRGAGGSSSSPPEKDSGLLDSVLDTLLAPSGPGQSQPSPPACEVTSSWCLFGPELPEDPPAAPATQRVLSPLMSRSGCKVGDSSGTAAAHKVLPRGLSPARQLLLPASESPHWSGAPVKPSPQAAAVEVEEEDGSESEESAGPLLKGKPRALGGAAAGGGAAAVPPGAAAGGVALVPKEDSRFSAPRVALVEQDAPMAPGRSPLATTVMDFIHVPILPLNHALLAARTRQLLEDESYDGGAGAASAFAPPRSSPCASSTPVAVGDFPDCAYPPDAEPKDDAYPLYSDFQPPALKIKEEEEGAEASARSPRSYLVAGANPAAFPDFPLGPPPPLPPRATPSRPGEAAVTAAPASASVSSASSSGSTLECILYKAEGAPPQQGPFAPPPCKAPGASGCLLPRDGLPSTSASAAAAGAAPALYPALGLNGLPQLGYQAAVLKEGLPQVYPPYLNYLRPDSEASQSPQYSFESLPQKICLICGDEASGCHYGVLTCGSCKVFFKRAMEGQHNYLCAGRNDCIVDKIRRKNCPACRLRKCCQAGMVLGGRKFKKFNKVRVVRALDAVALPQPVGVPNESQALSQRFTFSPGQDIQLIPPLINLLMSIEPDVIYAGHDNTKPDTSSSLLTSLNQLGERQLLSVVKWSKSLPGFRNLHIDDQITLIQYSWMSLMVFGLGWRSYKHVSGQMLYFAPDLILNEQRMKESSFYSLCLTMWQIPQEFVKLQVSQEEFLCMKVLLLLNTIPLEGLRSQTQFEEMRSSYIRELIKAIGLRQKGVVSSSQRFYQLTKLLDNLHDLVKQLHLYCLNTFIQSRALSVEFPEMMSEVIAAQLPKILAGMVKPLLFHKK

Motilin receptor = Motilin receptor (Homo sapiens, UniProt O43193)
Chain of Motilin receptor (O43193 whole entry): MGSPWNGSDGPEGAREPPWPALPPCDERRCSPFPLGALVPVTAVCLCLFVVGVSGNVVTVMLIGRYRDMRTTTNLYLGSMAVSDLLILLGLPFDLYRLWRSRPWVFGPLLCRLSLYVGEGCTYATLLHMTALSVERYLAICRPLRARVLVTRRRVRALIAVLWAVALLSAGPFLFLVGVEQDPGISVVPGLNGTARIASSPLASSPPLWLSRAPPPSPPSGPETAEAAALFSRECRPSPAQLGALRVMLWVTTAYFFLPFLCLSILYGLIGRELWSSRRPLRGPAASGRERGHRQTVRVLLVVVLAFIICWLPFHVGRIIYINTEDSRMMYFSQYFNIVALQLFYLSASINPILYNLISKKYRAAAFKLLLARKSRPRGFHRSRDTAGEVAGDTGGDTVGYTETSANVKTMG

[2] = target: T3, Cholecystokinin receptor type A (Homo sapiens, UniProt P32238)
T3 sequence (P32238 whole entry): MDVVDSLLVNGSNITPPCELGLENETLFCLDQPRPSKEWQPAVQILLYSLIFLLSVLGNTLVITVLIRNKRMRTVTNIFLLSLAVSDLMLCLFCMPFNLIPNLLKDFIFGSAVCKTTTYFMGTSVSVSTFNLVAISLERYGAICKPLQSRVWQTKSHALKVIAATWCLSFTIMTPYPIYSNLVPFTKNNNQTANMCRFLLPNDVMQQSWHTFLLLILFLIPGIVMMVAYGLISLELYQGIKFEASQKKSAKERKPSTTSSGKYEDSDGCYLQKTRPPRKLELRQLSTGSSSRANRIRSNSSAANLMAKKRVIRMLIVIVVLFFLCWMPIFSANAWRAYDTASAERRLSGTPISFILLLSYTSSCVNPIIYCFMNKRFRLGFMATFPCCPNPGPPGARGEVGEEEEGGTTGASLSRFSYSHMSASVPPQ

[3] = target: Kappa-type opioid receptor (Homo sapiens, UniProt P41145)
Chain of Kappa-type opioid receptor (P41145 whole entry): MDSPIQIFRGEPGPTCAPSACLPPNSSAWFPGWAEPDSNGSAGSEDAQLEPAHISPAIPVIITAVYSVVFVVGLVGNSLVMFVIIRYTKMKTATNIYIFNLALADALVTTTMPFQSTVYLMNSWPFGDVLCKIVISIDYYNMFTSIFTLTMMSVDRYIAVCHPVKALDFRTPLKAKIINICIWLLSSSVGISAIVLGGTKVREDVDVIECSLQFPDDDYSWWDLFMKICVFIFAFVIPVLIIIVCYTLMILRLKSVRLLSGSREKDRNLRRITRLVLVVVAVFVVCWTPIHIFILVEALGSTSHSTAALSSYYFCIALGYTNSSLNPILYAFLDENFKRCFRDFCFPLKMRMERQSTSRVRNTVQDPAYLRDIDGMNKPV

Vasopressin V2 receptor = Vasopressin V2 receptor (Homo sapiens, UniProt P30518)
Chain of Vasopressin V2 receptor (P30518 whole entry): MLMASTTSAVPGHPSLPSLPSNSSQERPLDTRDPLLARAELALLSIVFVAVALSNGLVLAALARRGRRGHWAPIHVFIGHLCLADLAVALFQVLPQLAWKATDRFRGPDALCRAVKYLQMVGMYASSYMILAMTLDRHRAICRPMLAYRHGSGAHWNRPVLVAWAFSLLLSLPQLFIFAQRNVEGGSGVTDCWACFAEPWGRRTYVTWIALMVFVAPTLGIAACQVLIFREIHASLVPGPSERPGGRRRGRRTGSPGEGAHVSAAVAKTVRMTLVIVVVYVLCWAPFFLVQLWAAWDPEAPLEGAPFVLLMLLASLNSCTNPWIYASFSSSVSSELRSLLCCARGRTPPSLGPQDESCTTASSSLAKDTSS

[4] = target: Glutamate receptor ionotropic, NMDA 1 (Rattus norvegicus, UniProt P35439)
[5] = target: Voltage-gated inwardly rectifying potassium channel KCNH2 (Homo sapiens, UniProt Q12809); format: functional
Chain of Voltage-gated inwardly rectifying potassium channel KCNH2 (Q12809 whole entry): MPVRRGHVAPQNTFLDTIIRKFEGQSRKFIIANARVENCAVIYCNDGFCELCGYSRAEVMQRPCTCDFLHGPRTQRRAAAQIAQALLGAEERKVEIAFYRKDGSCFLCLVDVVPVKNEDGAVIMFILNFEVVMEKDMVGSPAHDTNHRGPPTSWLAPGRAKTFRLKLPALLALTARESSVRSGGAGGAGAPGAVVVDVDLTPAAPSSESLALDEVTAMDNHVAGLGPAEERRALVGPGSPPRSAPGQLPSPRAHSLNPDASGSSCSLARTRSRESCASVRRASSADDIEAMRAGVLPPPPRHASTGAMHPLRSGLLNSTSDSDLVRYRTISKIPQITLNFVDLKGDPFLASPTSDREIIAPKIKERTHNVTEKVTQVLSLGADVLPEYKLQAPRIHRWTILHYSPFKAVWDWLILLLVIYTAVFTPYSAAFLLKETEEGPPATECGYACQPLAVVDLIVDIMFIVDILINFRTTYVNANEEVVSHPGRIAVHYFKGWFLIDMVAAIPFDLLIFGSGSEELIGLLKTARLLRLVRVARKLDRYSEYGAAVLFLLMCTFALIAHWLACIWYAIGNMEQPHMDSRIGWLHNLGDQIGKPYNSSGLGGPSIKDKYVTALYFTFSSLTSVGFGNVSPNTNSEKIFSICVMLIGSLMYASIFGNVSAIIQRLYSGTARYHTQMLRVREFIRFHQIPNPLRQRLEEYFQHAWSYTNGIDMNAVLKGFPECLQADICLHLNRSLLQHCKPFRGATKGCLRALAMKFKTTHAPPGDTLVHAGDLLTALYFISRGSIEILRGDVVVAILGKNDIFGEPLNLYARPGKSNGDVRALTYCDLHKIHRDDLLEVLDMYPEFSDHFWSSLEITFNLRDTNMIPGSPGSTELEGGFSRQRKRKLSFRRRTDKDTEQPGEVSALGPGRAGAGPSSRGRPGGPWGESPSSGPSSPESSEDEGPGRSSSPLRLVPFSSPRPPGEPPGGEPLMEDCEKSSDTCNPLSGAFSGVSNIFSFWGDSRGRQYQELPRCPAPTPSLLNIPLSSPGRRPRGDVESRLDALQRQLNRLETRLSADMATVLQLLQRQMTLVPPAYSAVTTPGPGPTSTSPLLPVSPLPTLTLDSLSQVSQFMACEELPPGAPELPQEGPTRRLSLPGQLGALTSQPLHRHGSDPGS

[6] = target: T4, Type-1 angiotensin II receptor (Homo sapiens, UniProt P30556)
T4 sequence (P30556 whole entry): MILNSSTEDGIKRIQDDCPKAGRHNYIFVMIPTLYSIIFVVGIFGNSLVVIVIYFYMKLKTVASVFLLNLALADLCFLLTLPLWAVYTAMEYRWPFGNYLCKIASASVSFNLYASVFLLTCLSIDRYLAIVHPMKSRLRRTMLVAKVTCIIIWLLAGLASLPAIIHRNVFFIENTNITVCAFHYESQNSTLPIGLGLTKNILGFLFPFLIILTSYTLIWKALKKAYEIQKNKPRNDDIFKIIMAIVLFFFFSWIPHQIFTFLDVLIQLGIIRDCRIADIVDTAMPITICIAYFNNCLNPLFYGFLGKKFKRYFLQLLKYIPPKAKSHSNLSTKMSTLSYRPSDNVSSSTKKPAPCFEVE

Histamine H3 receptor = Histamine H3 receptor (Homo sapiens, UniProt Q9Y5N1)
Chain of Histamine H3 receptor (Q9Y5N1 whole entry): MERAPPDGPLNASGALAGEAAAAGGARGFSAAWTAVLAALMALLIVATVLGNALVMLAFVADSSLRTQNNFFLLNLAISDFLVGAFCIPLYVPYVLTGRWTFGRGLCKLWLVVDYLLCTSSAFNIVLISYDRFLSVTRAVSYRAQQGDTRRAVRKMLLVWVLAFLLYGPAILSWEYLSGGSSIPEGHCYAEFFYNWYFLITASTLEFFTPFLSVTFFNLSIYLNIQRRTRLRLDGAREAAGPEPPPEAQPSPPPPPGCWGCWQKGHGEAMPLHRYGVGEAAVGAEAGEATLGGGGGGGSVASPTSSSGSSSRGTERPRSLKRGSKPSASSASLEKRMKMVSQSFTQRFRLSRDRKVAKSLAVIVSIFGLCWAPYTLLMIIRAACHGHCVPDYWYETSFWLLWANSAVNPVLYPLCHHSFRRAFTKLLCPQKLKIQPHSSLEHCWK
Further: assay procedure not described here.

Chain of Delta-type opioid receptor (P41143 whole entry): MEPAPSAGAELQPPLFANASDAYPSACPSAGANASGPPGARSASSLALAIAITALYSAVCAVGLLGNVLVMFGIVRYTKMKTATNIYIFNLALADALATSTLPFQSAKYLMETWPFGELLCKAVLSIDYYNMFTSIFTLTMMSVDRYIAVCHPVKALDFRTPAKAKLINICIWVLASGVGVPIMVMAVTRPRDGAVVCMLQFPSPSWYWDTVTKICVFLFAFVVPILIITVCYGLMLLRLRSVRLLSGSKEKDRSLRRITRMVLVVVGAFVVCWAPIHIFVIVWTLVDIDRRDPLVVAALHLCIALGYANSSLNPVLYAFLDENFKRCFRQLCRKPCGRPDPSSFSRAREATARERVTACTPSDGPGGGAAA

| Compound | AC50 [1] [µM] | AC50 (Adenosine receptor A1) [µM] | AC50 (Progesterone receptor) [µM] | AC50 (Motilin receptor) [µM] | AC50 [2] [µM] | AC50 [3] [µM] | AC50 (Vasopressin V2 receptor) [µM] | AC50 [4] [µM] | AC50 [5] [µM] | AC50 [6] [µM] | AC50 (Histamine H3 receptor) [µM] |
| --- | --- | --- | --- | --- | --- | --- | --- | --- | --- | --- | --- |
| O=c1[nH]c2ccccc2n1CCCN1CCN(C(c2ccccc2)c2ccccc2)CC1 [OXATOMIDE] | > 30 | > 30 | > 30 | 12 | > 30 | 13 | > 30 | > 30 | 0.026 | 17 | > 30 |
| c1ccc(C2(N3CCCCC3)CCCCC2)cc1 [PHENCYCLIDINE] | > 30 | > 30 | > 30 | > 30 | > 30 | > 30 | > 30 | 0.288 | 12 | > 30 | > 30 |
| OC[C@H]1O[C@@H](Oc2cc(O)cc(/C=C/c3ccc(O)cc3)c2)[C@H](O)[C@@H](O)[C@@H]1O [PICEID] | > 30 | > 30 | > 30 | > 30 | > 30 | > 30 | > 30 | > 30 | > 30 | > 30 | > 30 |
| O=C1CC[C@@H](C(=O)N2CSC[C@H]2C(=O)O)N1 [PIDOTIMOD] ([pGlu]-[Thz]-OH) | > 30 | > 30 | > 30 | > 30 | > 30 | > 30 | > 30 | > 30 | > 30 | > 30 | > 30 |
| COc1cc(C(=O)OCc2cccc(COC(=O)c3cc(OC)c(OC)c(OC)c3)n2)cc(OC)c1OC [PIROZADIL] | > 30 | > 30 | > 30 | > 30 | > 30 | > 30 | > 30 | > 30 | > 30 | > 30 | > 30 |
| CCC(NC(C)C)C(O)c1ccc(O)c2[nH]c(=O)ccc12 (stereo not given) [PROCATEROL] | > 30 | > 30 | > 30 | > 30 | > 30 | > 30 | > 30 | > 30 | > 30 | > 30 | > 30 |
| C=CC[N+]1([C@H]2C[C@H]3[C@@H]4CC[C@H]5C[C@H](O)[C@@H](N6CCOCC6)C[C@]5(C)[C@H]4CC[C@]3(C)[C@H]2OC(C)=O)CCCC1 [ROCURONIUM] | > 30 | > 30 | > 30 | > 30 | > 30 | > 30 | > 30 | > 30 | 1.06 | 1.2 | > 30 |
| CCCN1CCCC[C@H]1C(=O)Nc1c(C)cccc1C [ROPIVACAINE] | > 30 | > 30 | > 30 | > 30 | > 30 | > 30 | > 30 | > 30 | > 30 | > 30 | > 30 |
| CCN1CCCC1CNC(=O)c1cc(S(=O)(=O)CC)ccc1OC (stereo not given) [SULTOPRIDE] | > 30 | > 30 | > 30 | > 30 | > 30 | > 30 | > 30 | > 30 | 3.5 | > 30 | 22 |
| C=CCN1CCc2nc(N)sc2CC1 [TALIPEXOLE] | > 30 | > 30 | > 30 | > 30 | > 30 | 17 | > 30 | > 30 | > 30 | > 30 | 3.3 |
| Cn1c(=O)c2c(ncn2CCOC(=O)C(C)(C)Oc2ccc(Cl)cc2)n(C)c1=O [THEOFIBRATE] | > 30 | > 30 | > 30 | > 30 | > 30 | > 30 | > 30 | > 30 | > 30 | > 30 | > 30 |
| COc1cc(C(=O)NC2CCCNC2)cc(OC)c1OC (stereo not given) [TROXIPIDE] | > 30 | > 30 | > 30 | > 30 | > 30 | 16 | > 30 | > 30 | > 30 | > 30 | > 30 |
| CC(C)(C)NCC(O)c1ccccc1Cl (stereo not given) [TULOBUTEROL] | > 30 | > 30 | > 30 | > 30 | > 30 | > 30 | > 30 | > 30 | > 30 | > 30 | > 30 |
| CC(C(=O)O)c1ccc2c(c1)CC(=O)c1ccccc1S2 (stereo not given) [ZALTOPROFEN] | > 30 | > 30 | > 30 | > 30 | > 30 | 24 | > 30 | > 30 | > 30 | > 30 | > 30 |
| CC(c1cc2ccccc2s1)N(O)C(N)=O (stereo not given) [ZILEUTON] | > 30 | > 10 | > 30 | > 10 | > 10 | > 10 | > 10 | > 10 | > 30 | > 10 | > 10 |
